The record followed here is ChEMBL document CHEMBL1201862, “PubChem BioAssay data set” (2004).

For test [1], the system named is Streptococcus sp. 'group A'. Put plainly: growth inhibition of control SK(-) GAS strain, dose response, counter-screen for streptokinase expression inhibitor project, luminescence, kanamycin, BacTiterGlo, confirmation (AID 1900). It is filed as functional, organism-based. In general terms: The purpose of a counterscreen is to sort out artefacts and off-target activity.

Test [2] in a line: microbe, parasite or virus in culture. Conditions: Mycobacterium tuberculosis. It is filed as functional.
The next test has as its system Streptococcus. Put plainly: Group A Streptococcus viability loss, dose response, counter-screen for streptokinase expression inhibitor project, luminescence, BacTiterGlo (AID 1915).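 Also: potency for reduction of bacterial viability or growth.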 Type of test: functional, organism-based.
For test [3], the target named is Glucose-6-phosphate 1-dehydrogenase (Homo sapiens, UniProt P11413). Put plainly: human G6PD enzyme inhibitors, dose response, selectivity assay for P. falciparum G6PD inhibitor project, biochemical, fluorescence (AID 504792). It is filed as functional.
Glucose-6-phosphate 1-dehydrogenase, sequence (P11413 whole entry): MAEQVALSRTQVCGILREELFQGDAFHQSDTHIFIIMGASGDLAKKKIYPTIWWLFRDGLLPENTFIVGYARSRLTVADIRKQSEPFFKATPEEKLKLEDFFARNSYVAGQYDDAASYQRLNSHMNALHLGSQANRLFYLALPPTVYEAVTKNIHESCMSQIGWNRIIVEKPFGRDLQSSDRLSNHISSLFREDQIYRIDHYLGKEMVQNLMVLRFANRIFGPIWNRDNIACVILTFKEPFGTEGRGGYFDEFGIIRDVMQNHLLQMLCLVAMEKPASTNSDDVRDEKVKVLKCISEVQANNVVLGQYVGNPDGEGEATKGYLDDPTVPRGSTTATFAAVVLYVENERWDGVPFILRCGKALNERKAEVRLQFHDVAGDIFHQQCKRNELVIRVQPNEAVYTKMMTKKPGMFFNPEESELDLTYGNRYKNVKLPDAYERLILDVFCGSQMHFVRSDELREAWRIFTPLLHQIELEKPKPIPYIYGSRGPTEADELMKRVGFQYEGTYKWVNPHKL
The target of a further test is T1, Streptokinase A (Streptococcus pyogenes serotype M1, UniProt P10520).
T1 sequence (P10520 whole entry): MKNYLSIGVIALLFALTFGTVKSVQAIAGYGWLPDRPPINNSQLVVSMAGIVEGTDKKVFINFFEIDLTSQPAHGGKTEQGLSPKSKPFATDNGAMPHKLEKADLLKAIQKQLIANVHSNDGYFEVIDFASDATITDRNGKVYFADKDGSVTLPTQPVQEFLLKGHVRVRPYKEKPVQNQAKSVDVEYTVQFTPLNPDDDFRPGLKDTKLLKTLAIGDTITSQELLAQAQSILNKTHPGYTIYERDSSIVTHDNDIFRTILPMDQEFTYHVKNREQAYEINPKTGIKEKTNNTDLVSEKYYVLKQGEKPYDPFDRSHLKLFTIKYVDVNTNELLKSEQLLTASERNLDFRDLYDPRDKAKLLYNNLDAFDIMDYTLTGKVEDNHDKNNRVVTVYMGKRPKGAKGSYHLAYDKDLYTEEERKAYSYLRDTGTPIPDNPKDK
As to the kind of experiment: S. pyogenes streptokinase expression inhibitors, potency, dose response, plasminogen activation absorbance, OD405 (AID 1914).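 Also: secreted streptokinase activity via plasminogen activation per viability signal from cell pellet.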 Type of test: functional, Streptococcus pyogenes M1 GAS.

Test [4] deals with Neurotensin receptor type 1 (Homo sapiens, UniProt P30989). Type of test: functional.
Neurotensin receptor type 1, sequence (P30989 whole entry): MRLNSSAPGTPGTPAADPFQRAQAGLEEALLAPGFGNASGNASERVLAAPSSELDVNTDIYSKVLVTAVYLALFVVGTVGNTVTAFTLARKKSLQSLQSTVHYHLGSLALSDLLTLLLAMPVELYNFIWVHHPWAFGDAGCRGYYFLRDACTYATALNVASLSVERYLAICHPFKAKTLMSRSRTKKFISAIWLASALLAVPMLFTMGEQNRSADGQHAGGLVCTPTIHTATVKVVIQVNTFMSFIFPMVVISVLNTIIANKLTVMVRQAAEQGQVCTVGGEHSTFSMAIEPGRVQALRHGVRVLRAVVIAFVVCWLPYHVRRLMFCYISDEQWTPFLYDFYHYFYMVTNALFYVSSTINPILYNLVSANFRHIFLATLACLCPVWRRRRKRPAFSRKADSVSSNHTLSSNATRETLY
In another test the test system is HEK293. Put plainly: inhibitors of LMP1-driven NF-kB reporter, dose response, cell-based, HEK293, luciferase, cherry-pick (AID 588343). It is filed as functional. Conditions: Homo sapiens.
Test [5] deals with Voltage-gated inwardly rectifying potassium channel KCNH2 (Homo sapiens, UniProt Q12809). The following applies: Potency.
Voltage-gated inwardly rectifying potassium channel KCNH2, sequence (Q12809 whole entry): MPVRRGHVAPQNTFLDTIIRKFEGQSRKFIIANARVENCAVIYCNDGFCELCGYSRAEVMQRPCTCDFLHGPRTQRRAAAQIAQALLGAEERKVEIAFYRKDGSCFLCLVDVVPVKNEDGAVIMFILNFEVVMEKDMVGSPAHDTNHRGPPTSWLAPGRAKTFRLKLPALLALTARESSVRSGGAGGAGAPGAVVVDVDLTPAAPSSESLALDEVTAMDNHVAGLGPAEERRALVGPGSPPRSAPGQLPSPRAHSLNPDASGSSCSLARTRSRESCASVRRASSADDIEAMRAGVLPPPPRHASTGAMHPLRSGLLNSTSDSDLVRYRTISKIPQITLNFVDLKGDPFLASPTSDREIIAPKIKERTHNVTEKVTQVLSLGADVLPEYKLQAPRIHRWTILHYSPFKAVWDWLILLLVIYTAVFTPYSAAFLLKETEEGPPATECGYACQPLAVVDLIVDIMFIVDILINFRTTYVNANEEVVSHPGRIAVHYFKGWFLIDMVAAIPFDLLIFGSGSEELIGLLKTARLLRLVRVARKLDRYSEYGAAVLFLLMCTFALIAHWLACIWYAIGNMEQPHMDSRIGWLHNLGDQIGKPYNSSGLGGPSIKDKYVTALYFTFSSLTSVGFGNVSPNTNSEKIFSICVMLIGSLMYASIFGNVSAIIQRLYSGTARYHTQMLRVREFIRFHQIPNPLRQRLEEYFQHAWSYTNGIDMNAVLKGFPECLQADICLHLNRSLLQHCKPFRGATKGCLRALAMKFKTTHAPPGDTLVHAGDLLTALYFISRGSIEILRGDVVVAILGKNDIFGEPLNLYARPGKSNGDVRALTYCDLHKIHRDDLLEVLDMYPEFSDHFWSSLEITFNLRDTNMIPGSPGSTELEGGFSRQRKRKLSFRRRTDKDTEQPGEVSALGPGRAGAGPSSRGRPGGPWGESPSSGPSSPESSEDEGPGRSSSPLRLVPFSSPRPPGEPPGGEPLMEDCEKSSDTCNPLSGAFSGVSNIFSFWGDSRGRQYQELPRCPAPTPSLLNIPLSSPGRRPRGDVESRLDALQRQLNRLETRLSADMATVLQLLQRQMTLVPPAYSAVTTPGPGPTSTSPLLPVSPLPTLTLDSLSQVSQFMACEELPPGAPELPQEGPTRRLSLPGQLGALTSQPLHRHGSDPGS
For the next test, the system named is Vero. Put plainly: Vero cell cytotoxicity, cytotoxicity control for flavivirus capping enzyme inhibitors (AID 588742). Type of test: functional. Conditions: Chlorocebus sabaeus.
Another test concerns HeLa. As to the kind of experiment: HeLa cell cytotoxicity, dose response, cytotoxicity control for MITF activator project, CellTiter-Glo luminescence, cherry-pick samples (AID 540259). It is filed as functional, cell-based. Conditions: Homo sapiens.
Another test deals with A-375. As to the kind of experiment: MITF: Counter assay: A375 proliferation Measured in Cell-Based System Using Plate Reader - 2084-03_Inhibitor_Dose_DryPowder_Activity. [Related pubchem assays (depositor defined):AID488944]. It is filed as functional. The following applies: Homo sapiens.
The next test deals with Jurkat. Put plainly: antigen receptor-induced NF-kB inhibitors, dose response, Jurkat, luciferase reporter, luminescence, B- and T-cell (AID 489004).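 Also: NF-kB luciferase reporter Jurkat cells stimulated with PMA plus ionomycin.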 It is filed as functional, cell-based. Conditions: Homo sapiens. A general note: A reporter such as luciferase makes a cellular process visible.
For test [6], the target named is T2, Orexin receptor type 2 (Homo sapiens, UniProt O43614).
T2 sequence (O43614 whole entry): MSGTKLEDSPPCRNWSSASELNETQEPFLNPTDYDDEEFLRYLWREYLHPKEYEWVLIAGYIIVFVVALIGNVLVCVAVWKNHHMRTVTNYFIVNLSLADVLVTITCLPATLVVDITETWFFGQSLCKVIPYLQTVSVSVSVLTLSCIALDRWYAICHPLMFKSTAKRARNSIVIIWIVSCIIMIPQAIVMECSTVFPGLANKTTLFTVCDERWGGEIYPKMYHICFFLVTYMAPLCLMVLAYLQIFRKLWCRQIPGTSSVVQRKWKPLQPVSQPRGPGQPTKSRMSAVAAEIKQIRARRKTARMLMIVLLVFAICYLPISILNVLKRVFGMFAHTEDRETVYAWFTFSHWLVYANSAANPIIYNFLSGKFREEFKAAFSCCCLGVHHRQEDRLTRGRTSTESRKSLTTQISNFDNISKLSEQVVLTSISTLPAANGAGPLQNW
Put plainly: Counterscreen assay for antagonists of the orexin 1 receptor (OX1R; HCRTR1): Homogeneous Time Resolved Fluorescence (HTRF)-based cell-based dose response assay for antagonists of the orexin 2 receptor (OX2R; HCRTR2), run by assay provider. It is filed as functional.

Test [7] has as its target T2, Orexin receptor type 2. Put plainly: Counterscreen assay for antagonists of the orexin 1 receptor (OX1R; HCRTR1): Fluorescence-based cell-based dose response assay for antagonists of the orexin 2 receptor (OX2R; HCRTR2), run by assay provider. Type of test: functional.
Test [8] concerns the target Sphingosine 1-phosphate receptor 2 (Homo sapiens, UniProt O95136). As to the kind of experiment: Dose Response Cell Based Assay for Antagonists of the S1P2 Receptor. [Related pubchem assays: 856, 736 ]. Type of test: functional.
For test [9], the target named is T3, Orexin/Hypocretin receptor type 1 (Homo sapiens, UniProt O43613).
T3 sequence (O43613 whole entry): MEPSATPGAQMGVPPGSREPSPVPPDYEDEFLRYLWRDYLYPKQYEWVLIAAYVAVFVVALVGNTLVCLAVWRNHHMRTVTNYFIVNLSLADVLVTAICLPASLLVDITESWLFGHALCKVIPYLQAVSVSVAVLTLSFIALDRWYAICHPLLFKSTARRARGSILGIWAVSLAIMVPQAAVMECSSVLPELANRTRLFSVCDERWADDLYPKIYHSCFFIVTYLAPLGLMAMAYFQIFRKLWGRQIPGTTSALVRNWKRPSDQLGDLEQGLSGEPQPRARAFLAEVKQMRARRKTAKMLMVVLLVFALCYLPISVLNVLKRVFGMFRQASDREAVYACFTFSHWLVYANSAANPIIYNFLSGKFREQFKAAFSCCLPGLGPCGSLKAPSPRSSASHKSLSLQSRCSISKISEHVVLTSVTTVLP
As to the kind of experiment: Homogeneous Time Resolved Fluorescence (HTRF)-based cell-based high throughput dose response assay for antagonists of the orexin 1 receptor (OX1R; HCRTR1). [Related pubchem assays (depositor defined):AID434989, AID435008, AID463079, AID485270, AID492963, AID492964, AID492965, AID493232, AID504717, AID504718]. It is filed as functional.

Test [10] addresses T3, Orexin/Hypocretin receptor type 1. As to the kind of experiment: Fluorescence-based cell-based high throughput dose response assay for antagonists of the orexin 1 receptor (OX1R; HCRTR1). [Related pubchem assays (depositor defined):AID434989, AID435008, AID463079, AID485270, AID492963, AID492964, AID492965, AID493232, AID504717, AID504718]. It is filed as functional.
Test [11] is described as follows: HepG2 cell cytotoxicity, dose response, cytotoxicity control for Shn3 inhibitor project, CellTiter-Glo, cherry-picked (AID 624134). It is filed as functional, cell-based.
A further test concerns the target Fatty acid synthase (Homo sapiens, UniProt P49327). As to the kind of experiment: FAS thioesterase domain inhibitors, dose response, biochemical, kinetic fluorescence intensity (AID 624326).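 Also: rate of fluorescence rise from hydrolysis of a fluorogenic O-methyl fluorescein ester substrate.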 It is filed as functional.
Test [12] is described as follows: Shn3 3'UTR reporter inhibitors, dose response, cell-based, Clone20 osteoblasts, firefly luciferase, cherry-picked (AID 624132).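 Also: firefly luciferase luminescence from reporter carrying the Shn3 3'UTR in osteoblasts.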 It is filed as functional.
Test [13] deals with T4, Microphthalmia-associated transcription factor (Homo sapiens, UniProt O75030).
T4 sequence (O75030 whole entry): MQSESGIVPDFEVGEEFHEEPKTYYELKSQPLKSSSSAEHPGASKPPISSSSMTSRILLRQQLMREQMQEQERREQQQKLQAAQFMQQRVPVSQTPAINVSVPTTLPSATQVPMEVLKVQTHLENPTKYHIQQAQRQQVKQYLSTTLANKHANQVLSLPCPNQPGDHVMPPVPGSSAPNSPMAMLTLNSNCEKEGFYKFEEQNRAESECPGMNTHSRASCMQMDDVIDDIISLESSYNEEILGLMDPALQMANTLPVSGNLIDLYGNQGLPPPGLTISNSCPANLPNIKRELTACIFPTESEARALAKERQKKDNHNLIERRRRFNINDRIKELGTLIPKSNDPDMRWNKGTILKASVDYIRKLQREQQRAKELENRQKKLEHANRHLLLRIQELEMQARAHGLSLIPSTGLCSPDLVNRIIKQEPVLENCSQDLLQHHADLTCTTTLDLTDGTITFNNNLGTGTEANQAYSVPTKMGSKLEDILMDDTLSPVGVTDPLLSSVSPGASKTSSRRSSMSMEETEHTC
Put plainly: TRPM1 promoter luciferase signal decrease, dose response, MITF inhibitor project, cell-based, SK-MEL-5, cherry-picked, set 3 (AID 493073).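 Also: SK-MEL-5 melanoma cells with luciferase driven by the MITF target TRPM1 promoter.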 It is filed as functional.

Test [14] is described as follows: cytotoxicity in HEK-293T NF-kB-Luc cells, dose response, cytotoxicity control for B/T-cell NF-kB inhibitor project, cell-based, uHTS hits (AID 489019).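 Also: IC50 reflects cytotoxicity as loss of cell viability.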 It is filed as functional.
The next test has as its system CHO-K1. Put plainly: Counterscreen for antagonists of the orexin 1 receptor (OX1R; HCRTR1): Homogeneous time resolved fluorescence (HTRF)-based cell-based dose response assay to identify antagonists of the parental CHO-K1 cell line. [Related pubchem assays (depositor defined):AID434989, AID435008, AID463079, AID485270, AID492963, AID492964, AID492965, AID493232, AID504699, AID504701]. Conditions: Cricetulus griseus. Type of test: functional.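 Also: potency for inhibition of ATP-stimulated IP1 production as antagonists.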

The next test concerns INS1. As to the kind of experiment: beta cell apoptosis inhibitors, cytokine rescue, dose response, luminescence, retest (AID 449756).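 Also: cell death triggered by IL-1 beta plus TNF-alpha plus IFN-gamma mixture; protective hits raise ATP signal compared with cytokine alone wells.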 It is filed as functional, cell-based. Conditions: Rattus norvegicus.
The nature of test [15]: control 3'UTR Renilla luciferase suppression, dose response, counter-screen for Shn3 inhibitor project, cell-based, Clone20-Shn3RL, cherry-picked (AID 624133). Type of test: functional.
Test [16] can be described thus: Counterscreen for antagonists of the orexin 1 receptor (OX1R; HCRTR1): Fluorescence-based cell-based high throughput dose response assay to identify antagonists of the parental CHO cell line. [Related pubchem assays (depositor defined):AID434989, AID435008, AID463079, AID485270, AID492963, AID492964, AID492965, AID493232, AID504699, AID504701]. Type of test: functional.

In test [17] the target is T5, Endoribonuclease toxin MazF (Escherichia coli K-12, UniProt P0AE70).
T5 sequence (P0AE70 whole entry): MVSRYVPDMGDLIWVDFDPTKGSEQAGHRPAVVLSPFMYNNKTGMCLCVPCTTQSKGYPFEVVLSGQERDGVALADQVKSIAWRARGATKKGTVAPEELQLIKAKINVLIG
As to the kind of experiment: fluorescent RNA oligo signal without MazF, dose response, counter-screen for MazEF activator project, biochemical, fluorescence, single-stranded RNase substrate (AID 588502). Type of test: functional.

For test [18], the target named is T5, Endoribonuclease toxin MazF. As to the kind of experiment: MazF toxin RNase activators, dose response, biochemical, fluorescence, single-stranded RNA substrate, uHTS hits (AID 588481). Type of test: functional.

The term EC50 denotes the concentration needed to bring the measured effect to its halfway point. By IC50 is commonly meant the concentration needed to halve the response being measured. As usually defined, the AC50 is the midpoint of the concentration-response curve, whichever way the signal moves.

The structures appear in SMILES notation. Activity calls are given as the source filed them.

Fatty acid synthase, sequence (P49327 whole entry, the tested form may be a part): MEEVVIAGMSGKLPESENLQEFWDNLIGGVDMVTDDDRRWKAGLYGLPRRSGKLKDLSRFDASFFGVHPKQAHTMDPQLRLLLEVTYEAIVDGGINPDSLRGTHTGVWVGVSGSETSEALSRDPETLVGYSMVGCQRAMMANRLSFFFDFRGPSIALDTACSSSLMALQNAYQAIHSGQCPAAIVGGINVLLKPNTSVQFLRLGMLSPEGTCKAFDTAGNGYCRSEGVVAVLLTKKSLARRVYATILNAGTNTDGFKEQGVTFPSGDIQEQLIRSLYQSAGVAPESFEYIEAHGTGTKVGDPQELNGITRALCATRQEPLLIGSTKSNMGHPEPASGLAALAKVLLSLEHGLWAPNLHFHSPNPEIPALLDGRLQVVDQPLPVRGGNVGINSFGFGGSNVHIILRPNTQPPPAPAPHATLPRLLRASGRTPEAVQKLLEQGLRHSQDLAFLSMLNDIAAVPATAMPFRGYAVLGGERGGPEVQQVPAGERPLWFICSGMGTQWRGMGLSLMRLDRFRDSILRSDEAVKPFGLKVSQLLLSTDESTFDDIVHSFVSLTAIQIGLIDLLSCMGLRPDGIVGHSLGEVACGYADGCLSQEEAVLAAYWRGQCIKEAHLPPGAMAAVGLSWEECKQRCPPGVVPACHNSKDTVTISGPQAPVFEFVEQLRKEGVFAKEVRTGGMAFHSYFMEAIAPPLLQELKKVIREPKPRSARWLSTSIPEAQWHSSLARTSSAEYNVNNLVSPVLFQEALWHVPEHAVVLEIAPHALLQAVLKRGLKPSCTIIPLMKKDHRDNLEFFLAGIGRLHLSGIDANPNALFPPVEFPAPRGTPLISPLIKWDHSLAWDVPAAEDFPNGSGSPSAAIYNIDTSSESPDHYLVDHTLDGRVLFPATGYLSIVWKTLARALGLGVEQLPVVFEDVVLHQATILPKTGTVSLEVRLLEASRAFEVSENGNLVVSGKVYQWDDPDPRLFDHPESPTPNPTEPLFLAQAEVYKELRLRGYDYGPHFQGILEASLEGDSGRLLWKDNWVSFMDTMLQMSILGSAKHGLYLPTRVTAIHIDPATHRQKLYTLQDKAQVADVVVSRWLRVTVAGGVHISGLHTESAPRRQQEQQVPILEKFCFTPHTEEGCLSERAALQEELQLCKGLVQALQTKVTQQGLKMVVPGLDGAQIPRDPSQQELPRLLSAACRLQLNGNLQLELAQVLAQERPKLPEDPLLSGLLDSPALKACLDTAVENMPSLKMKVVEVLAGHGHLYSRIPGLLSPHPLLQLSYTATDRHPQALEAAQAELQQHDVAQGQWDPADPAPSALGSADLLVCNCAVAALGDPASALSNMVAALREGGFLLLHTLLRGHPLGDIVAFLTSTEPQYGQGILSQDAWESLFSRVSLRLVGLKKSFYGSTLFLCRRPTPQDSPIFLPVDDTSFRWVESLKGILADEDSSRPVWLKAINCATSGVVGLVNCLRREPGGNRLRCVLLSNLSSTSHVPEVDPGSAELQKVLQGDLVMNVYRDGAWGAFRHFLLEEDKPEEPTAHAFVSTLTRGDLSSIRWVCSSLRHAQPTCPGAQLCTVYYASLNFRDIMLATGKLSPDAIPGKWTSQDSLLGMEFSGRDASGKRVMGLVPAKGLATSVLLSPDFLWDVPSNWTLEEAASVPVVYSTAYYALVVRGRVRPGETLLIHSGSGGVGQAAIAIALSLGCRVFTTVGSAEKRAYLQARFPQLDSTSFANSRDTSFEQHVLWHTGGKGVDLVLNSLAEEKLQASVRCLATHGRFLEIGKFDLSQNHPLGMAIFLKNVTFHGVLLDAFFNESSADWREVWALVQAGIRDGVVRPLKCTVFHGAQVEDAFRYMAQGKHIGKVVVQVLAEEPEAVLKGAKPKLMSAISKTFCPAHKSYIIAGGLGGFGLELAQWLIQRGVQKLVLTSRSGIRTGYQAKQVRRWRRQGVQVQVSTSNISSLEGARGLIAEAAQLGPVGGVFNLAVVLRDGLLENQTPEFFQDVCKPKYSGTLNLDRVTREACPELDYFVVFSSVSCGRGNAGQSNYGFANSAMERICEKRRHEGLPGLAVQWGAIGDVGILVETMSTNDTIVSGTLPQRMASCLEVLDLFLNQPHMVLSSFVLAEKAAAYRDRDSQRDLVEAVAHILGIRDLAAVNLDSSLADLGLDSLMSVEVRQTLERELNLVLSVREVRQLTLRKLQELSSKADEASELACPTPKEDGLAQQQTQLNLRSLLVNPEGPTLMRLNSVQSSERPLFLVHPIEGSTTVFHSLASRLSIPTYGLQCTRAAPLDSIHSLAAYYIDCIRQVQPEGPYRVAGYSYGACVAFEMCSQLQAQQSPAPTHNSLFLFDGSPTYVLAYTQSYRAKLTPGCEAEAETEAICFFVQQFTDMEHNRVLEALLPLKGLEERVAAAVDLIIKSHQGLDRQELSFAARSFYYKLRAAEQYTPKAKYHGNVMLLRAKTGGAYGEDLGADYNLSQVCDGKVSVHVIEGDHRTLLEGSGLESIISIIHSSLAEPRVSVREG
Sphingosine 1-phosphate receptor 2, sequence (O95136 whole entry): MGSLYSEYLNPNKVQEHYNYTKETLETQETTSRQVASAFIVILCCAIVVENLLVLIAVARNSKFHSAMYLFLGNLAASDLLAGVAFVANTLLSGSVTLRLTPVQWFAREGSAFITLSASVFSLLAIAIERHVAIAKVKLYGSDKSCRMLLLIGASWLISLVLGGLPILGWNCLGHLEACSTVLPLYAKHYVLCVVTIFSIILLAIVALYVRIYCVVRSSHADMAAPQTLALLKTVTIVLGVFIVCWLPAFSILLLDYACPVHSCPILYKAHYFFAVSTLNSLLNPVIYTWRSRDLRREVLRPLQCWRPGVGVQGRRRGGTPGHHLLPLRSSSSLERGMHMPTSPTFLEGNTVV

Take `Cc1ccc(C(=O)/C=C/C(=O)c2ccc(C)cc2)cc1`: the EC50 in [1] is 3.45 µM (active); in the test with Streptococcus, 9.38 µM (active); on Streptokinase A it was 0.653 µM (active); in test [4] it was 14.9 µM (active). Moreover, the CC50 in test [2] is 31.4 µM (active). Moreover, the IC50 in test [3] is > 80 µM (inactive). Besides, in the test with HEK293, the AC50 is 8.72 µM (active).
On to `CCC(Cl)CC(Cl)C(Cl)C(Cl)C(Cl)C(C)Cl` (stereo unspecified), for which, in test [5], the AC50 is 11.2 µM (inconclusive).
Regarding `Cc1nc2cc(NCc3nc4ccccc4n3Cc3ccccc3)ccc2n1C`, the CC50 with Vero is > 40 µM (active).
Regarding `COc1ccc(-c2cc(=O)c3cc(C)ccc3[nH]2)cc1`, the AC50 in the test with HeLa is 79.9 µM (active).
Turning to `COc1cc(NCc2ccccc2O)c2ncccc2c1`, in test [3], the IC50 was > 80 µM (inactive).
Take `CCN(Cc1ccccc1)c1ccccc1`: the AC50 in [5] is 35.5 µM (inconclusive).
Turning to `CC(C)=NOc1cc(NC(=O)CCl)cc([N+](=O)[O-])c1`, the AC50 in the test on A-375 is 15.3 µM (active).
As to `COc1ccccc1C(=O)Nc1nc(-c2ccc(S(=O)(=O)N3CCOCC3)cc2)cs1`, the IC50 was 7.79 µM (active) in the test on Jurkat; 5.93 µM (active) at Orexin receptor type 2 [6]; 8.4 µM (active) on Orexin receptor type 2 [7]; 3.81 µM (active) in test [8]; 3.59 µM (active) in test [9]; 17.5 µM (inactive) in test [10]. Besides, the IC50 on Fatty acid synthase is 10.9 µM (active); in test [14] it was > 80 µM (inactive); in the test on CHO-K1 it was > 66.2 µM (inactive); in test [16], > 16.6 µM (inactive). The AC50 in test [11] is 51.8 µM (active); in [12], 1.21 µM (active); in test [13], 4.34 µM (active); in the test with INS1 it was 3.17 µM (active); in test [15], 2.34 µM (active).
Consider `CCN(CC)C(=O)Oc1ccc2c(=O)c(-c3ccc(OC)cc3)coc2c1`, for which, in the test on HeLa, the AC50 was 287 µM (active).
Consider `CN(CC(=O)Nc1ccccc1Cl)CC(=O)c1c(N)n(Cc2ccccc2)c(=O)n(C)c1=O`, for which the EC50 in [17] and in [18] was > 99 µM (inactive) each time.
